Converted amounts (≈) assume the structure as drawn. “And” between values parts separate entries of the source, which are not always exact repeats. Equal values may be shown once. Where a name gives a salt, the structure may show the parent alone. Read-outs that look alike come from different tables or passages of the source.
Key:
[1] = test system: food intake / carbohydrate craving; conditions: cited from earlier work
[2] = Paraben preservative degradation (hydrolysis); type: physicochemical; conditions: pH 6
Source text: The pH of the drug product formulation was optimized to minimize the preservative degradation.
Like methylparaben, ethylparaben degrades in solution by hydrolysis. The rate increases at higher pH. The pH of the drug product formulation was optimized to minimize the preservative degradation while maintaining adequate solubility, and no significant increase in the preservatives degradation product has been observed in long-term stability studies.

[3] = target: T1, vesicular glutamate transporter, VGLUT2 (Homo sapiens, UniProt Q9P2U8); conditions: concentrations expected during the ketogenic diet; cited from earlier work
T1 sequence (Q9P2U8 1-582): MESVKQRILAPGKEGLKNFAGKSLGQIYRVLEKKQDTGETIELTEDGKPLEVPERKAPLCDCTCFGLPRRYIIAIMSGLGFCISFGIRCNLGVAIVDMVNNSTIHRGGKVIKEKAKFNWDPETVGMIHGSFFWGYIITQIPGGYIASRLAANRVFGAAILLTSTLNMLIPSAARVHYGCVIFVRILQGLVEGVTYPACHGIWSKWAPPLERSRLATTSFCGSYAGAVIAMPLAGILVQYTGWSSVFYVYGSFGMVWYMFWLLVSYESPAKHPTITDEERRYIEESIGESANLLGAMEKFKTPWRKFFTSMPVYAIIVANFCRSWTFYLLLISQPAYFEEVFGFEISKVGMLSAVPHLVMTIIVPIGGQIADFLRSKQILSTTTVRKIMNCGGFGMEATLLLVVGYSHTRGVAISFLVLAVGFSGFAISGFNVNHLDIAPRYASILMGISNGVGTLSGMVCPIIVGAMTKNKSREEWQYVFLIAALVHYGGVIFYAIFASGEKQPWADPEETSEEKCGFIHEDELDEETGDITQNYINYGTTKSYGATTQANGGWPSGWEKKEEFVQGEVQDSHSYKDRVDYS

[4] = cited from earlier work
[5] = Particle size of drug substance batches; type: physicochemical
Source text: Fenfluramine hydrochloride drug substance is non-micronized. The range of particle size parameters obtained from five GMP batches (two clinical batches manufactured by Onyx, and three registration batches manufactured by Aptuit) is listed in Table 1.

[6] = Buffer system selection: stability of pH prototypes; type: physicochemical; conditions: pH range of 4.5 to 6.5, citrate or citrate-phosphate buffer prototypes
Protocol: A pH range of 4.5 to 6.5 was investigated during formulation development studies. Various prototypes were prepared with either citrate buffer or citrate-phosphate buffer, depending on target pH. […] Based on initial stability data, a target pH of 5.0 (range: 4.5-5.5) was selected because it minimized the preservatives degradation at long-term and accelerated stability conditions without causing precipitation in product stored at 2-8° C. The buffer components in the drug product formulation are tripotassium citrate and citric acid. Potassium citrate was used instead of sodium citrate to avoid common ion effect with the paraben sodium salts, which may have contributed to precipitation in prototypes containing sodium citrate.

[7] = Solid state stability and polymorph screening; type: physicochemical
[8] = pH 6.8
[9] = Aqueous solubility of the drug substance; conditions: aqueous solution
seizures [10] = test: Treatment of seizures in epilepsy patients; type: in vivo, human
Source text: Clemens, in Epilepsy Research (1988) 2:340-343 reported a study on a child suffering pattern sensitivity-induced seizures that were resistant to anticonvulsive treatment.
This is confirmed, for example, in the article by Ceulemans et al., Epilepsia (2012) 53(7):1131-1139, the contents of which are incorporated herein.
(§1) The overall anorectic effect of dexfenfluramine is greater than that of […] in experimental animals (Garratini et al. 1988) and humans (Goodall et al. 1992). […] Put differently, a preferred dose is not more than about 30 mg/day, and less than about 1 to about 0.01 mg/kg/day.

[11] = test system: food intake / carbohydrate craving; test: Anorectic effect, food intake and carbohydrate craving; type: in vivo, human; conditions: surprisingly low dose, compared to 60-120 mg/day for obesity
Protocol: as §1

seizures [12] = conditions: cited from earlier work
[13] = test system: cardiac fibrosis and pulmonary hypertension; conditions: marketed use for obesity; cited from earlier work
[14] = clinical and registration batches 1-5, hydrochloride

CCN[C@@H](C)Cc1cccc(C(F)(F)F)c1 (racemic) [Dexfenfluramine]
carbohydrate craving ([1]; adults, 30 mg/day): reduction in carbohydrate craving
suppression of food intake ([1]; dose of 30 mg): suppressed food intake to the same degree as fenfluramine 60 mg
anorectic potency vs racemic mixture fenfluramine ([1]; group of 16 human subjects): twice the anorectic potency

COC(=O)c1ccc(O)cc1.[Na] [Methylparaben sodium, sodium methyl p-hydroxybenzoate]
stability against hydrolysis [2]: acceptable stability below pH 6

CC(=O)CC(=O)O [acetoacetate]
glutamate transport by VGLUT2 [3]: inhibited

CCOC(=O)c1ccc(O)cc1 [ethylparaben, ethyl 4-hydroxybenzoic acid]
solubility of the free acid in water ([4]; 20° C.): 0.07%
solubility of the free acid in water ([4]; 25° C.): 0.08%
solubility [4]: 0.8 mg/mL (≈ 4.81 mM)

CCNC(C)Cc1cccc(C(F)(F)F)c1 (stereo not shown) [fenfluramine hydrochloride]
D50 [5, 14]: 6.99 μm and 6.79 μm and 8.92 μm and 8.20 μm and 6.16 μm
D90 [5, 14]: 23.01 μm and 26.25 μm and 32.08 μm and 27.04 μm and 18.96 μm
median particle size (D50) ([5]; experimental batch): 60 μm
ninetieth percentile (D90) ([5]; experimental batch): 250 μm
time needed for complete dissolution in the formulation vehicle ([5]; experimental batch vs micronized portions of the same batch): no difference was observed in the time needed for complete dissolution
stability over pH range [6]: stable over the entire range of pH
polymorphs observed ([7]; polymorph screening study, accelerated and long-term stability studies): no other polymorphs have been observed
solid state stability ([7]; solid state): chemically and physically stable in the solid state
time for which the solution is stable [8]: at least 6 months
solubility ([9]; 25 °C, pH 1.7, simulated gastric fluid): ~25 mg/mL
solubility ([9]; 25 °C, pH 6.7, aqueous buffer): > 50 mg/mL
solubility ([9]; 37 °C, aqueous buffer): 54 to 96 mg/mL

CCNC(C)Cc1cccc(C(F)(F)F)c1 (stereo not shown) [fenfluramine, 3-trifluoromethyl-N-ethylamphetamine]
effect on seizures (seizures [10]; patients with Dravet syndrome, Lennox-Gastaut syndrome, or Doose syndrome): reduce or eliminate seizures
efficacy of low doses on seizures (seizures [10]; surprisingly low doses, Dravet, Lennox-Gastaut or Doose syndrome patients): efficacious
appetite and craving for carbohydrates [11]: effective in reducing appetite and craving for carbohydrates
effect on seizures (seizures [12]; child with pattern sensitivity-induced seizures resistant to anticonvulsive treatment): successfully terminated these self-induced seizures
number of seizures (seizures [12]; children with refractory epilepsy, 0.5 to 1 mg/kg/day): reduction in the number of seizures
response of seizures (seizures [12]; four cases of self-induced photosensitive seizures): responded to treatment
therapeutic benefit (seizures [12]; patients with intractable epilepsy): appeared to be of therapeutic benefit
adverse effects associated with use [13]: associated with the onset of cardiac fibrosis and pulmonary hypertension

— US10682317B2 (ZOGENIX INTERNATIONAL LIMITED, priority 2017, dated 2020)
